Test results taken from patent US10344025B2, “GLS1 inhibitors for treating disease” (Board of Regents, The University of Texas System, priority 2014, dated 2019).

Tests used:
[1] = target: purified recombinant human GAC (GLS1) (Homo sapiens (Human), UniProt O94925); assay: GLS1 Enzymatic Activity Assay (dual-coupled enzymatic assay, resorufin/Amplex UltraRed readout); format: biochemical;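 further: glutamate from GAC coupled via glutamate oxidase and peroxidase to resorufin, read as fluorescence (ex 530, em 590 nm) kinetically or at 20 min, four-parameter logistic IC50 fit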
Chain of purified recombinant human GAC (GLS1) (O94925 other isoform, or with tags, fused parts or gaps): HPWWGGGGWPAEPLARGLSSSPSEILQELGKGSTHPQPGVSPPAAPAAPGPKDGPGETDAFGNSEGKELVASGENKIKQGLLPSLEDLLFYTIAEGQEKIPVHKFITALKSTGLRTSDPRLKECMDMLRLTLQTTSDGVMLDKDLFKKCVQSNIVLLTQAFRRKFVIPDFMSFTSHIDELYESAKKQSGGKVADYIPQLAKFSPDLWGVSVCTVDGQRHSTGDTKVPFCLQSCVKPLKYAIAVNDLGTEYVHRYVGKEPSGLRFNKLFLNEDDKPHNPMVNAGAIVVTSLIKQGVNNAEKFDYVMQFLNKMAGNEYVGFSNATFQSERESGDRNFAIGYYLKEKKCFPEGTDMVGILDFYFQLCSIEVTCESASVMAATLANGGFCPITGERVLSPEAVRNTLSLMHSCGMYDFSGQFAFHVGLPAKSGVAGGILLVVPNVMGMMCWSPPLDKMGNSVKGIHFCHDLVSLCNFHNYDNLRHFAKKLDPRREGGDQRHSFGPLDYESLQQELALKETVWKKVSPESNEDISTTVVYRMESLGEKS

A549 cells = assay: Proliferation Assay (A549 viability, Cell Titer Fluor, 72 hours); format: cell-based; settings: Homo sapiens, A549, 72 h
How it was run: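 Cell Titer Fluor fluorescence after 72 h compound treatment (0.5% DMSO, 37 °C, 5% CO2) of A549 cells plated 24 h earlier at 1000/well. Four-parameter logistic fitting gave IC50.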

Row | Structure (SMILES) | IC50 [1] [nM] | EC50 (A549 cells) [nM]
1 | Cc1ccc(CNC(=O)c2cn(CCC(F)Cn3cc(NC(=O)Cc4ccc(C)nc4)nn3)nn2)cn1 (centres unmarked) [Example 346, 1-(3-fluoro-4-{4-[2-(6-methylpyridin-3-yl)acetamido]-1H-1,2,3-triazol-1-yl}butyl)-N-[(6-methylpyridin-3-yl)methyl]-1H-1,2,3-triazole-4-carboxamide] | < 100 | 500 to 5000
2 | O=C(NCc1cncc(C(F)(F)F)c1)c1cn(CCCCn2cc(C(=O)NCC3COC3)nn2)nn1 [Example 91, N-(oxetan-3-ylmethyl)-1-{4-[4-({[5-(trifluoromethyl)pyridin-3-yl]methyl}carbamoyl)-1H-1,2,3-triazol-1-yl]butyl}-1H-1,2,3-triazole-4-carboxamide] | 500 to 5000 | > 5000
3 | O=C(NCc1cccc(OC(F)(F)F)c1)c1cn(CCCCn2cc(C(=O)NC[C@H](O)c3ccccc3)nn2)nn1 [Example 139, N-[(2R)-2-hydroxy-2-phenylethyl]-1-{4-[4-({[3-(trifluoromethoxy)phenyl]methyl}carbamoyl)-1H-1,2,3-triazol-1-yl]butyl}-1H-1,2,3-triazole-4-carboxamide] | 100 to 500 | 100 to 500
4 | CNC(=O)c1cn(CCCCc2ccc(NC(=O)Cc3cn(-c4cccc(OC(F)(F)F)c4)cn3)nn2)nn1 [Example 604, N-methyl-1-(4-(6-(2-(1-(3-(trifluoromethoxy)phenyl)-1H-imidazol-4-yl)acetamido)pyridazin-3-yl)butyl)-1H-1,2,3-triazole-4-carboxamide] | < 100 | < 100
5 | CNC(=O)c1cn(CCC(F)Cn2cc(C(=O)NCc3ccc(OC(F)F)cc3)nn2)nn1 (centres unmarked) [Example 181, 1{4-[4-({[4-(difluoromethoxy)phenyl]methyl}carbamoyl)-1H-1,2,3-triazol-1-yl]-3-fluorobutyl}-N-methyl-1H-1,2,3-triazole-4-carboxamide] | 100 to 500 | 500 to 5000
6 | O=C(NCc1cccc(OC(F)F)c1)c1cn(CCCCn2cc(C(=O)NCc3cc(C(F)(F)F)ccn3)nn2)nn1 [Example 132, {4-[4-({[3-(difluoromethoxy)phenyl]methyl}carbamoyl)-1H-1,2,3-triazol-1-yl]butyl}-N-{[4-(trifluoromethyl)pyridin-2-yl]methyl}-1H-1,2,3-triazole-4-carboxamide] | < 100 | < 100
7 | CNC(=O)c1cn(CCCCc2ccc(NC(=O)Cc3cccc(-c4ccccn4)c3)nn2)nn1 [Example 545, N-methyl-1-[4-(6-{2-[3-(pyridin-2-yl)phenyl]acetamido}pyridazin-3-yl)butyl]-1H-1,2,3-triazole-4-carboxamide] | < 100 | 100 to 500
8 | Cc1ccc(CNC(=O)c2cn(CCCCn3cc(NC(=O)Cc4cccnc4)nn3)nn2)cn1 [Example 315, N-[(6-methylpyridin-3-yl)methyl]-1-(4-{4-[2-(pyridin-3-yl)acetamido]-1H-1,2,3-triazol-1-yl}butyl)-1H-1,2,3-triazole-4-carboxamide] | 100 to 500 | 500 to 5000
9 | O=C(Cc1cccc(OC(F)(F)F)c1)Nc1nnc(CCCCn2cc(C(=O)NCc3cccnc3)nn2)s1 [Example 1, N-(pyridin-3-ylmethyl)-1-[4-(5-{2-[3-(trifluoromethoxy)phenyl]acetamido}-1,3,4-thiadiazol-2-yl)butyl]-1H-1,2,3-triazole-4-carboxamide] | < 100 | < 100
10 | CNC(=O)c1cn(CC(F)CCn2cc(C(=O)NCc3cc(OC(F)(F)F)ccc3F)nn2)nn1 (centres unmarked) [Example 150, 1-{2-fluoro-4-[4-({[2-fluoro-5-(trifluoromethoxy)phenyl]methyl}carbamoyl)-1H-1,2,3-triazol-1-yl]butyl}-N-methyl-1H-1,2,3-triazole-4-carboxamide] | 100 to 500 | 100 to 500
11 | CNC(=O)c1cn(C[C@H](F)CCc2ccc(NC(=O)Cc3cc(C4CC4)ccn3)nn2)nn1 [Example 275, (R)-1-(4-(6-(2-(4-cyclopropylpyridin-2-yl)acetamido)pyridazin-3-yl)-2-fluorobutyl)-N-methyl-1H-1,2,3-triazole-4-carboxamide] | < 100 | < 100
12 | CNC(=O)c1cn(CCCCc2ccc(NC(=O)Cc3cccc(CNC(=O)OC(C)(C)C)c3)nn2)nn1 [Example 172] | < 100 | < 100
13 | CNC(=O)c1nnc(CCCCc2ccc(NC(=O)Cc3cccc(OC(F)(F)F)c3)nn2)s1 [Example 572, N-methyl-5-(4-(6-(2-(3-(trifluoromethoxy)phenyl)acetamido)pyridazin-3-yl)butyl)-1,3,4-thiadiazole-2-carboxamide] | < 100 | 100 to 500
14 | CNC(=O)c1cn(CC(F)CCc2ccc(NC(=O)Cc3cc(OC4CCC4)ccn3)nn2)nn1 (centres unmarked) [Example 251, 1-(4-(6-(2-(4-cyclobutoxypyridin-2-yl)acetamido)pyridazin-3-yl)-2-fluorobutyl)-N-methyl-1H-1,2,3-triazole-4-carboxamide 2,2,2-trifluoroacetate] | < 100 | < 100
15 | O=C(Cc1cc(Cl)ccc1F)Nc1cn(CCCCn2cc(C(=O)NCc3cc(Cl)ccc3F)nn2)nn1 [Example 415, 1-(4-{4-[2-(5-chloro-2-fluorophenyl)acetamido]-1H-1,2,3-triazol-1-yl}butyl)-N-[(5-chloro-2-fluorophenyl)methyl]-1H-1,2,3-triazole-4-carboxamide] | < 100 | < 100
16 | CNC(=O)c1cn(CCC(F)Cn2cc(C(=O)NCc3cccc(C(=O)OC)c3)nn2)nn1 (centres unmarked) [Example 185, methyl 3-{[(1-{2-fluoro-4-[4-(methylcarbamoyl)-1H-1,2,3-triazol-1-yl]butyl}-1H-1,2,3-triazol-4-yl)formamido]methyl} benzoate] | 100 to 500 | 500 to 5000
17 | O=C(Cc1cc(OC(F)(F)F)ccc1F)Nc1ccc(CCCCc2nnc(C(=O)NCCO)s2)nn1 [Example 597, 5-(4-(6-(2-(2-fluoro-5-(trifluoromethoxy)phenyl)acetamido)pyridazin-3-yl)butyl)-N-(2-hydroxyethyl)-1,3,4-thiadiazole-2-carboxamide] | < 100 | 100 to 500
18 | O=C(Cc1ccccn1)Nc1ccc(CCCCn2cc(C(=O)NCc3cc(OC(F)(F)F)ccc3F)nn2)nn1 [Example 588, N-(2-fluoro-5-(trifluoromethoxy)benzyl)-1-(4-(6-(2-(pyridin-2-yl)acetamido)pyridazin-3-yl)butyl)-1H-1,2,3-triazole-4-carboxamide] | < 100 | < 100
19 | CNC(=O)c1cn(CCC(F)Cn2cc(C(=O)NCc3cccc(S(C)(=O)=O)c3)nn2)nn1 (centres unmarked) [Example 183, 1-[3-fluoro-4-(4-{[(3-methanesulfonylphenyl)methyl]carbamoyl}-1H-1,2,3-triazol-1-yl)butyl]-N-methyl-1H-1,2,3-triazole-4-carboxamide] | 100 to 500 | > 5000
20 | COCCNC(=O)c1nnc(CCC(F)Cn2cc(C(=O)NCc3cccc(OC(F)(F)F)c3)nn2)s1 (centres unmarked) [Example 523, 5-{3-fluoro-4-[4-({[3-(trifluoromethoxy)phenyl]methyl}carbamoyl)-1H-1,2,3-triazol-1-yl]butyl}-N-(2-methoxyethyl)-1,3,4-thiadiazole-2-carboxamide] | 100 to 500 | 500 to 5000
21 | O=C(Cc1ccccc1)Nc1ccc(CCCCc2nnc(C(=O)NCCc3ccccc3)s2)nn1 [Example 26, 5-{4-[6-(2-phenylacetamido)pyridazin-3-yl]butyl}-N-(2-phenylethyl)-1,3,4-thiadiazole-2-carboxamide] | < 100 | < 100
22 | NC(=O)c1cn(CCCCc2nnc(NC(=O)Cc3cccc(OC(F)(F)F)c3)s2)nn1 [Example 3, 1-(4-(5-(2-(3-(Trifluoromethoxy)phenyl)acetamido)-1,3,4-thiadiazol-2-yl)butyl)-1H-1,2,3-triazole-4-carboxamide] | 100 to 500 | 100 to 500
23 | CNC(=O)c1cn(CC(F)CCc2nnc(C(=O)NCc3cc(OC(F)(F)F)ccc3F)s2)nn1 (centres unmarked) [Example 562, 5-{3-fluoro-4-[4-(methylcarbamoyl)-1H-1,2,3-triazol-1-yl]butyl}-N-{[2-fluoro-5-(trifluoromethoxy)phenyl]methyl}-1,3,4-thiadiazole-2-carboxamide] | < 100 | 100 to 500
24 | O=C(Cc1cccc(OC(F)(F)F)c1)Nc1cn(CCCCn2cc(C(=O)NCc3ccccn3)nn2)nn1 [Example 279, N-(pyridin-2-ylmethyl)-1-[4-(4-{2-[3-(trifluoromethoxy)phenyl]acetamido}-1H-1,2,3-triazol-1-yl)butyl]-1H-1,2,3-triazole-4-carboxamide] | < 100 | 100 to 500
25 | O=C(NCc1cc(OC(F)(F)F)ccc1F)c1cn(CCC(F)Cn2cc(C(=O)NCc3cccc(C(F)(F)F)n3)nn2)nn1 (centres unmarked) [Example 425, 1-{2-fluoro-4-[4-({[2-fluoro-5-(trifluoromethoxy)phenyl]methyl}carbamoyl)-1H-1,2,3-triazol-1-yl]butyl}-N-{[6-(trifluoromethyl)pyridin-2-yl]methyl}-1H-1,2,3-triazole-4-carboxamide] | < 100 | < 100
26 | O=C(NCc1cncc(C(F)(F)F)c1)c1cn(CCCCn2cc(C(=O)NCC3CCCO3)nn2)nn1 (centres unmarked) [Example 92, N-(oxolan-2-ylmethyl)-1-{4-[4-({[5-(trifluoromethyl)pyridin-3-yl]methyl}carbamoyl)-1H-1,2,3-triazol-1-yl]butyl}-1H-1,2,3-triazole-4-carboxamide] | 500 to 5000 | 500 to 5000
27 | O=C(NCc1cccc(F)c1)c1cn(CCCCn2cc(C(=O)NCc3cc(C(F)(F)F)ccn3)nn2)nn1 [Example 112, 1-[4-(4-{[(3-fluorophenyl)methyl]carbamoyl}-1H-1,2,3-triazol-1-yl)butyl]-N-{[4-(trifluoromethyl)pyridin-2-yl]methyl}-1H-1,2,3-triazole-4-carboxamide] | 100 to 500 | 100 to 500
28 | CNC(=O)c1cn(CC(F)CCc2nnc(NC(=O)Cc3ncc(Cl)cc3F)s2)nn1 (centres unmarked) [Example 564, 1-(4-{5-[2-(5-chloro-3-fluoropyridin-2-yl)acetamido]-1,3,4-thiadiazol-2-yl}-2-fluorobutyl)-N-methyl-1H-1,2,3-triazole-4-carboxamide] | < 100 | 500 to 5000
